Results on six molecules are retold here after patent publication US20260241021A1 (priority 2023, published 2026).

pIC50: −log10 of the molar value.

Data set [1] has as its system SKBR-3 breast cancer cells. Nature of the data set: Cytotoxicity of linker-payloads (CellTiter-Glo, six days). In kind it is cell-based, human. Particulars: SKBR-3, six days. An excerpt: Human SKBR-3 breast cancer cells (ATCC, HTB-30) were used in this study. […] The IC50 data for the different linker payloads were similar.
A general note: In ATP-based viability assays light output follows the ATP content of the culture.

For another data set, the target named is cathepsin B (Homo sapiens, UniProt P07858). As to the kind of experiment: Digestion and exatecan release of linker-payloads by cathepsin B cleavage (LC-UV). The data set is classed as in vitro ADME. As to conditions: 5 μg linker-payload, 10 μg/mL activated cathepsin B, 37° C., sampled for 24 hours. The procedure:
This study was conducted to evaluate how the DCBO and BCN in the linker-payloads would affect drug release. The study also included the linker-payloads with the two-amino acid spacer “GG” in the digestion comparison. The study was evaluated by digesting the linker-payloads using cathepsin B and quantifying the released exatecan by LC-UV. To perform exatecan release test by cathepsin B cleavage, 5 μg of the linker-payloads were treated with 10 μg/mL of activated cathepsin B in digestion buffer for payload cleavage at 37° C. The reaction mixture was sampled every two hours for 24 hours, and the amounts of released exatecan and residual linker-payload were analyzed by LC-UV. A C18 column (Symmetry 5 μm, 2.1×150 mm Waters) was applied for this analysis. Samples were eluted with ACN/water gradient at a flow rate of 0.5 mL/min, and the chromatogram was monitored at 263 nm.

For data set [2], the system named is Capan-1 pancreatic cancer cells. Particulars: Capan-1, 6 days. The procedure:
(§1) Tumor cells (2×10^3 cells/well) were seeded in 96 well plates and treated with ADCs for 6 days. CellTiter-Glo® Reagent (Cat. G7572, Promega) was prepared by adding CellTiter-Glo® Buffer into lyophilized CellTiter-Glo® Substrate. Reconstituted CellTiter-Glo® Reagent was added into the culture medium with cells at 1:1 ratio after treatment for 6 days. The plate was placed on an orbital shaker for 2 minutes to induce cell lysis and then incubated at room temperature for 10 minutes before recording the luminescent signals by Luminometer. The viability of each treated sample was compared to the non-treated control. The IC50 of each ADC was calculated by Prism.

The next data set concerns NCI-N87 gastric cells. As to conditions: NCI-N87, 6 days. The procedure: as §1

For orientation: pIC50 means −log10 of the IC50, conventionally taken in molar units. In data set [1], “BCN-GGVA-Hydra-PAB-PEG24-Exatecan [DL-8]” showed a pIC50 of 6.86. Also, at cathepsin B, the “amount of released exatecan” value was found to be 52.6% and the “percentage of linker-payloads existed (% linker-payload) after cathepsin B cleavage reaction” value is 4%.

As to TX05-DBCO-PEG24-Exatecan ADC [ADC-4], the values for the negative-log IC50 (pIC50) (in data set [2]; in the data set with NCI-N87 gastric cells) were 7.14 and 8.26, respectively.

On to `CC[C@@]1(O)C(=O)OCc2c1cc1n(c2=O)Cc2c-1nc1cc(F)c(C)c3c1c2[C@@H](NC(=O)OC(C(=O)NCCOCCOCCOCCOCCOCCOCCOCCOCCOCCOCCOCCOCCOCCOCCOCCOCCOCCOCCOCCOCCOCCOCCOCCOC)c1ccc(NC(=O)[C@H](C)NC(=O)[C@@H](NC(=O)CCC(=O)N2Cc4ccccc4C#Cc4ccccc42)C(C)C)cc1)CC3` (mixture of isomers) [DL-5, DBCO-VA-Hydra-PAB-PEG24-Exatecan], for which, in data set [1] (Homo sapiens, SK-BR-3, 144 h), the pIC50 was 6.61. Also, the “percentage of linker-payloads existed (% linker-payload) after cathepsin B cleavage reaction” value on cathepsin B is recorded as 75%.

The molecule `CC[C@@]1(O)C(=O)OCc2c1cc1n(c2=O)Cc2c-1nc1cc(F)c(C)c3c1c2[C@@H](NC(=O)OC(C(=O)NCCOCCOCCOCCOCCOCCOCCOCCOCCOCCOCCOCCOCCOCCOCCOCCOCCOCCOCCOCCOCCOCCOCCOCCOC)c1ccc(NC(=O)[C@H](C)NC(=O)[C@@H](NC(=O)CNC(=O)CNC(=O)CCC(=O)N2Cc4ccccc4C#Cc4ccccc42)C(C)C)cc1)CC3` (mixture of isomers) [DL-7, DBCO-GGVA-Hydra-PAB-PEG24-Exatecan] had a pIC50 in data set [1] (Homo sapiens, SK-BR-3, 144 h) of 7.01. Also, the “percentage of linker-payloads existed (% linker-payload) after cathepsin B cleavage reaction” value at cathepsin B is reported as 66%.

As to TX05-MCCA-PEG24-Exatecan ADC [ADC-3], the pIC50 in data set [2] was 7.19; in the data set with NCI-N87 gastric cells, 8.54.

Take `CC[C@@]1(O)C(=O)OCc2c1cc1n(c2=O)Cc2c-1nc1cc(F)c(C)c3c1c2[C@@H](NC(=O)OC(C(=O)NCCOCCOCCOCCOCCOCCOCCOCCOCCOCCOCCOCCOCCOCCOCCOCCOCCOCCOCCOCCOCCOCCOCCOCCOC)c1ccc(NC(=O)[C@H](C)NC(=O)[C@@H](NC(=O)OC[C@@H]2[C@@H]4CCC#CCC[C@@H]42)C(C)C)cc1)CC3` (mixture of isomers) [DL-6, BCN-VA-Hydra-PAB-PEG24-Exatecan]: the pIC50 in data set [1] (Homo sapiens, SK-BR-3, 144 h) was 6.65. The “percentage of linker-payloads existed (% linker-payload) after cathepsin B cleavage reaction” value at cathepsin B is recorded as 14%.
